Molecules are shown by their SMILES.

In this experiment the target is TAF1-BD2 (Homo sapiens, UniProt P21675). The experiment in a line: TAF1-BD2 TR-FRET binding assay. Particulars: Assay: TAF-1; biotinylated probe compound 1000, TR-FRET. (In general: Time-resolved FRET reads energy transfer from a long-lived donor to a nearby acceptor.)
Experimental: Specifically, in a 384 well ProxiPlate TAF1-BD2 (6 nM final) was combined with biotin-ligand (50 nM final) in 50 mM HEPES (pH 7.5), 50 mM NaCl, 1 mM TCEP, 0.01% (w/v) BSA, and 0.008% (w/v) Brij-35 either in the presence of DMSO (final 0.2% DMSO) or compound dilution series in DMSO. After 10 minutes incubation at room temperature, a mixture Eu-W1024 Anti-6×His antibody (Perkin Elmer AD0110) and SureLight™ Allophycocyanin-Streptavidin (APC-SA, Perkin Elmer CR130-100) were added to a final concentrations of 0.2 nMolar antibody and 25 nMolar APC-SA, respectively. After twenty minutes of equilibration, the plates were read on an Envision instrument and IC50s calculated using a four parameter non-linear curve fit.
In the case of `Cn1cc(-c2ccc(C(=O)NCc3ccccc3)cc2)c2cc[nH]c2c1=O` [Example 37, N-benzyl-4-(6-methyl-7-oxo-1H-pyrrolo[2,3-c]pyridin-4-yl)benzamide], the IC50 (commonly the concentration that gives 50% inhibition) was determined as 63 nM.

Regarding `CN1CCC(Cc2cccc(-c3cn(C)c(=O)c4[nH]ccc34)c2)CC1` [Example 46, 6-methyl-4-[3-[(1-methyl-4-piperidyl)methyl]phenyl]-1H-pyrrolo[2,3-c]pyridin-7-one], the half-inhibitory concentration (IC50) is 440 nM.

With `Cn1cc(-c2ccc(C(=O)N3CCOCC3)cc2)c2cc[nH]c2c1=O` [Example 30, 6-methyl-4-[4-(morpholine-4-carbonyl)phenyl]-1H-pyrrolo[2,3-c]pyridin-7-one], the half-inhibitory concentration (IC50) was determined as 350 nM.

Consider `CN1CCC(c2cccc(-c3cn(C)c(=O)c4[nH]ccc34)c2)CC1` [Example 43, 6-methyl-4-[3-(1-methyl-4-piperidyl)phenyl]-1H-pyrrolo[2,3-c]pyridin-7-one], for which the IC50 was determined as 680 nM.

In turn, `CNC(=O)c1cccc(-c2cn(C)c(=O)c3[nH]ccc23)c1` [Example 24, N-methyl-3-(6-methyl-7-oxo-1H-pyrrolo[2,3-c]pyridin-4-yl)benzamide] displayed a concentration for half-maximal inhibition (IC50) of 96 nM. This IC50 lies about 7.1-fold lower than the previous one.

The record behind these values is patent publication US10150767B2, “Therapeutic compounds and uses thereof” (priority 2014, dated 2018).
